In one data set the test system is EMT-6 tumors. Put plainly: Radiosensitizing effect on EMT-6 tumor in mouse, cure percentage and TCD50. Type of data set: in vivo, BALB/c-strain female mice. Conditions: 100 mg/kg i.p. after irradiation; for Cure number/Number treated / Cure percentage: >90 days. On the procedure: EMT-6 tumor cells (2×10^5) were inoculated intradermally into the right thighs of BALB/c-strain female mice (8 weeks old). When the tumor sizes reached 5.5 to 8.0 mm after inoculation of the tumor cells, irradiation was locally carried out with 1,000 rad to 2,700 rad of 32 MeV electron beam under no anesthesia, and thereafter 3'-dAdo and 3'-dGuo, each dissolved in physiological saline solution, were administered intraperitoneally in a dose of 100 mg/kg. After the treatments, observation was continued for longer than 90 days, and the cure percentages were determined for comparison with the control group. [formula]
(2) TCD50 =50% Tumor control dose

For data set [1], the system named is potentially lethal damage repair. Put plainly: PLDR-inhibiting / radiosensitizing activity (general statements).
The subject of another data set is adenosinedeaminase. Conditions: in bodies; cited from earlier work.
Another data set in a line: LD50 (i.p.) of 3'-dAdo. The note with it: in vivo, ip.

The source of these data is patent US4434788A, “Enhancer of anti-tumor effect” (Yamasa Shoyu Kabushiki Kaisha, priority 1980, dated 1984).

Usually LD50 stands for the dose at which mortality reaches 50%. Low values mean greater toxicity, high ones lower toxicity. For the compound `Nc1ncnc2c1ncn2[C@@H]1O[C@H](CO)C[C@H]1O` [3'-dAdo, 3'-deoxyadenosine, reference compound], the TCD50 (50% Tumor control dose) with EMT-6 tumors (radiation doses given in rad, control 2400) was found to be 1600 rad. Besides, in the data set on EMT-6 tumors (relative to control 1.0), the TCD50 ratio worked out at 0.67. Further, the “Cure number/Number treated” value in the data set with EMT-6 tumors (1,000 rad, control 1/23) is reported as 3/18; in the data set with EMT-6 tumors (1,500 rad, control 8/44), 14/29; with EMT-6 tumors (2,100 rad, control 9/24), 11/14; in the data set on EMT-6 tumors (2,700 rad, control 13/28), 10/15. The Cure percentage came to 17% in the data set with EMT-6 tumors (1,000 rad, control 4%); 48% in the data set with EMT-6 tumors (1,500 rad, control 18%); 79% in the data set with EMT-6 tumors (2,100 rad, control 38%); 67% in the data set on EMT-6 tumors (2,700 rad, control 47%). The Radiosensitizing activity result in data set [1] is on record as “excellent radiosensitizing activities”. In data set [1] (combination of 3'-dAdo with 2'-deoxycoformycin), the “PLDR-inhibiting ability of 3'-dAdo in combination with 2'-deoxycoformycin” value was “can be strengthened and prolonged”. In addition, the Inactivation by adenosinedeaminase entry in the data set on adenosinedeaminase is recorded as “readily inactivated by adenosinedeaminase in bodies”. This compound yielded an LD50 in the data set “LD50 (i.p.) of 3'-dAdo” of 280 mg/kg.
